This is an account of results in patent US8609607B2, “Modified defensins and their use” (The United States of America as represented by the …, priority 2002, dated 2013).

The test system of data set [1] is Escherichia coli ATCC43827. The experiment in a line: radial diffusion assay, antibacterial activity. Conditions: compared to unmodified HNP-1; 16-256 nM; FIG. 2A. The format is cell-based. On the procedure: (§1) The antibacterial activity of various concentrations of HNP-1 and ADP-ribosyl-HNP-1 (16 nM, 32 nM, 64 nM, 128 nM, 256 nM) on Escherichia coli ATCC43827 (American Type Culture Collection, Rockville, Md.) was evaluated by the radial diffusion assay (Takemura et al., Antimicrob. Agents Chemother. 40: 2280-2284, 1996). Antimicrobial activity was positively correlated with the diameter of a zone cleared of E. coli growth (minus the diameter of the central well (3 mm)).

Data set [2] deals with A549 cells. The data set is described as follows: chromium release assay, defensin cytotoxicity. The format is cell-based. To be noted: compared to unmodified HNP-1; 1.5-24 μM, 18 hours, 37° C.; FIG. 2B. On the procedure: (§2) Chromium (^51Cr)-labeled A549 cells (American Type Culture Collection) were incubated (18 hours, 37° C.) in 100 μl of serum-free RPMI (Gibco Fluids Inc., Rockville, Md.) containing various concentrations of HNP-1, synthetic HNP-1, or ADP-ribosyl-HNP-1 (1.5 μM, 3 μM, 6 μM, 12 μM, 24 μM) to quantify defensin cytotoxicity. Cytotoxicity was positively correlated with the amount of chromium released from lysed cells (Panyutich et al., Am. J. Respir. Cell. Mol. Biol. 12:351-357, 1995). Percent of lysis was calculated as (cpmexp−cpmspont)/(cpmmax−cpmspont)×100 (exp, experimental conditions; max, maximal release; spont, spontaneous release).

The next data set has as its system E. coli. The experiment in a line: radial diffusion assay, effect of ADP-ribosylated HNP-1 on HNP-1 activity. In kind it is cell-based. Conditions: HNP-1 100 nM incubated 1 hour at 37° C. with 0-800 nM ADP-ribosylated HNP-1; FIG. 3A. On the procedure:
as §1
HNP-1 (100 nM) was incubated for 1 hour at 37° C. with various concentrations of ADP-ribosylated HNP-1 (0-800 nM) before the initiation of the E. coli radial diffusion assay. The radial diffusion assay was performed as described in Example 4.

Data set [3] has as its system A549 cells. The data set is described as follows: chromium release assay, effect of ADP-ribosylated HNP-1 on HNP-1 cytotoxic activity. In kind it is cell-based. To be noted: HNP-1 12 μM incubated 1 hour at 37° C. with 0-12 μM ADP-ribosyl-HNP-1; FIG. 3B. On the procedure: as §2
HNP-1 (12 μM) was incubated with various concentrations of ADP-ribosyl-HNP-1 (0-12 μM) for 1 hour at 37° C. before the initiation of the chromium release assay. The chromium release assay was performed as described in Example 5. HNP-1 and ADP-ribosyl-HNP-1 (0-12 μM) were included as controls.

Data set [4] deals with A549 cells. The experiment in a line: IL-8 production by A549 cells (indirect ELISA). In kind it is cell-based. Conditions: 12 or 24 hours. On the procedure:
A549 cells (3×10^4 cells per well) were incubated in a 96-well plate in 200 μl of serum-free RPMI medium (Gibco Fluids Inc) containing ADP-ribosyl-HNP-1 or HNP-1 (0.25, 0.75, 1.5, 3 μM). Culture medium was sampled after 12 or 24 hours of incubation and IL-8 content in the medium was assayed by indirect ELISA (FIGS. 4A and 4B) according to the manufacturer's instructions (R & D System Inc. Minneapolis, Minn.).
(An ELISA detects its analyte on a solid surface through an enzyme-linked reagent.)

The subject of the next data set is CD3+ T-cells. The data set is described as follows: T cell chemotaxis assay. The format is cell-based, human. Conditions: 0.025 to 25 nM, 4 hours; compared to unmodified HNP; FIG. 4C. On the procedure:
CD3^+ T-cells were isolated from human peripheral blood prepared by leukapheresis (NIH, Department of Transfusion Medicine, Bethesda, Md.) (Chertov et al, J. Biol. Chem. 271:2935-2940, 1996) and suspended in migration medium (RPMI 1640, 0.5% bovine serum albumin, 25 mM HEPES). Inserts coated with collagen IV (Becton Dickinson Labware, Bedford, Mass.) were placed into 24-well culture plates to form upper and a lower chambers in each well. Upper chambers were wetted with migration medium, then 500 μl of migration medium with or without ADP-ribosyl-HNP-1 or HNP-1 (0.025 to 25 nM) were added to the lower chamber. Cells were added to the upper chamber and plates were incubated at 37° C. in 5% CO2 for 4 hours. Cells incubated in the presence or absence of (macrophage inflammatory protein-1β) MIP-1β (5 ng/ml) were the positive and negative controls, respectively. Lymphocytes that had migrated to the lower chamber were harvested by centrifugation and counted in a hematocytometer. Chemotaxis percentage was calculated as follows: (number of cells migrated to the lower chamber in the experimental conditions−number of cells migrated in the negative control)/(number of cells migrated in the positive control−number of cells migrated in negative control)×100.

Regarding “ADP-ribosylated HNP-1: HNP-1 (SEQ ID NO:2) mono-ADP-ribosylated by ART-1 with NAD, at arginine 14”, the “antibacterial activity (diameter of zone cleared of E. coli growth)” value in data set [1] is on record as “reduced antibacterial activity”. In the data set on A549 cells [2], the “cytotoxicity (lysis of 51Cr-labeled A549 cells)” value is given as “less cytotoxic than unmodified HNP-1”. Moreover, the “effect on antimicrobial/cytotoxic activity of HNP-1, radial diffusion assay” value in the data set with E. coli was “blocked the cytotoxic activity of HNP-1 in a concentration-dependent manner”. Also, the “effect on cytotoxic activity of HNP-1, chromium release assay” value in the data set on A549 cells [3] was “blocked the cytotoxic activity of HNP-1 in a concentration-dependent manner”. Also, the “IL-8 release into the medium versus unmodified peptide” value with A549 cells [4] (0.75 μM peptide, P=0.01) is given as “significantly higher”; in the data set with A549 cells [4] (1.5 μM peptide, P=0.01), “significantly higher”; in the data set with A549 cells [4] (3 μM peptide), “no differences”. Besides, in the data set on CD3+ T-cells, the “ability to recruit T cells (chemotaxis)” value was “retained the ability to recruit T cells at a level that was comparable to unmodified HNP”.
